The values that follow come from patent US10759754B2, “Aminobenzoic acid derivatives for use as anti-inflammatory agents, anti-metastatic agents and/or anticancer agents” (3R VALO, S.E.C., priority 2016, dated 2020).

“Also recorded” adds a separate entry of the source.

One assay relates to MDA-MB-241 cells. Description: 3D spheroid-based tumor invasion assay. The class given is cell-based, human. To be noted: 30 μM, day 4 vs day 0. The method, then:
Cellular analysis of 3D spheroid-based tumor invasion assays. Cell preparation and spheroid formation were performed following the manufacturer instructions (Corning). Briefly, MDA-MB-231 cells were harvested and diluted to a concentration of 5×10^4 cells/mL in (complete) culture media supplemented with 10% serum. 100 μL of cell suspension was then pipetted to appropriate 96 well spheroid formation plate and placed at 37° C./5% CO2. Spheroid formation was monitored every 24 hours. The typical cell aggregation period was 48 hours. Upon spheroid formation completion, 70 μL of complete medium was removed from each well, and replaced by 70 μL of serum-free medium. This was repeated on a daily basis to create a serum starvation period of 48 hours. Matrigel matrix (100 μL) was then added to each well. The plate was centrifuged at 300×g for 5 minutes in a swinging bucket centrifuge. The plate was then transferred to a 37° C./5% CO2 incubator for one hour to initiate gel formation. Following the 1-hour gel formation incubation period, DMSO or compound 4 was added to appropriate wells during 60 minutes. After pretreatment, the media was removed and replaced by complete culture media, and then the media was changed every day for a period of 4 days. […] These protrusions were identified, and their area and perimeter properly quantified using the ImageJ software (National Institutes of Health).

The subject of the next assay is STAT1. The assay can be described thus: Western blot of phosphorylated STAT1 in IFNγ-activated human macrophages. It counts as cell-based. Particulars: human macrophages pretreated 30 min at 10 and 50 μM; 30 min activation with 50 U/mL IFNγ. The method, then:
(§1) Cell signaling studies: THP1-derived human macrophages (750×10^3 cells/mL) and MB49-I cells (500×10^3 cells/mL) were pretreated for 30 min with vehicle (DMSO), compounds 4 and 5, at 10, 25 or 50 μM; and then washed and recovered immediately (t=0 min) or after 30 min of activation with 50 U/mL IFNγ, 25 ng/mL IL6, or 10 ng/mL TNFα. Cell lysates were prepared and analyzed by immunoblotting as described.^21-23,25 Briefly, protein samples were resolved by SDS-PAGE under reducing conditions and transferred onto a PVDF membrane. Blots were first probed with rabbit polyclonal antibodies against phospho-STAT1 (pSTAT1), pSTAT3, or p-IκB (all at 1:2000) overnight at 4° C. Blots were then incubated with HRP-conjugated goat anti-rabbit IgG Ab (1:3000) for 1 h at room temperature. The same blots were stripped and then probed with anti-STAT1 or anti-STAT3 Abs (both at 1:1000). In both cases, probed molecules were visualized using an enhancement chemiluminescence detection kit (Thermo Fisher Scientific).
For orientation: A western blot detects proteins with antibodies after separation by electrophoresis.

The next assay has as its system human UBC T24 cells. The assay can be described thus: Microinvasion assay (matrigel in Boyden chamber), M1-induced T24 cell invasion. It counts as cell-based. The procedure:
Microinvasion assays. Invasion was measured by assessment of human UBC T24 cell migration rate through an artificial basement membrane in a modified Boyden chamber (HTS Transwell System). Briefly, the membrane consisted of a polycarbonate filter with 0.4 μm pores diameter and was coated on ice with Matrigel (BD Biosciences) diluted 1:2 (v/v) in serum-free culture media. T24 cells (50×10^3 cells) were seeded into the Matrigel coat in the upper well of the chamber, while polarized M1 macrophages (50×10^3 cells) were seeded in the lower well. The polycarbonate filter with 0.4 μm pores diameter is too small to left the cells move to the bottom of the lower wells. Thus, non-invading cells into the matrigel coat were removed and cells that migrated down to the polycarbonate filter were stained with Hoescht 33258 dye after a 48-h incubation period, visualized by fluorescence microscopy and counted.

In assay [1] the test system is IL6/STAT3 signaling pathway. Description: Western blot of IL6/STAT3 signaling in MB49-I cells. It counts as cell-based, murine. To be noted: doses as lower as 10 μM. The method, then:
as §1

For a further assay, the system named is peritoneal macrophages. Description: NO and urea production in peritoneal macrophages after in vivo treatment of MB49 tumor-bearing mice. Particulars: treatment at 90 and 150 μM; macrophages recovered day 26. The method, then:
Evaluation of NO and Urea production by chemical methods. The MB49-I cells and the J774A.1 cells (25×10^3 cells/well) were grown and pretreated, as indicated, with various anti-inflammatory derivatives, precursors and mono-functional derivatives for a period of 3 h. Afterwards the cells were washed twice with 10% FBS RPMI-1640 and then activated to produce NO for a period of 24 h with cytokines INFγ and TNFα. NO production was measured using the Griess reagent method as previously described.^27 This method involves the detection of nitrite ions (NO2^−) formed by the spontaneous oxidation of NO under physiological conditions. […] In the presence of NO2^−, sulfanilic acid is converted to a diazonium salt, which in turn is coupled to N-(1-naphthyl)ethylenediamine to produce a pink coloration that is measured with a spectrophotometer (Biotek, synergy HT) at 548 nm. In the same manner, urea synthesis through arginase-1 activity was measured using commercially available kit.
Ectopic UBC model. […] Growth rates of the s.c. tumors were monitored. The size of tumors was determined every 3 days for 24-28 days using a digital caliper and by measuring luciferin luminescence at days 15 and 25 using the IVIS imaging system. A blinded observer measured tumor length and width. […]

The subject of another assay is MHC-II. The assay can be described thus: Flow cytometry of MHC-II surface antigen in IFNγ-activated human macrophages. The class given is cell-based. To be noted: compound 4 at 10 μM, compound 5 at 25 μM. The method, then:
(§2) Surface antigen expression analysis. To study membrane receptor expression, THP1-derived human macrophages (750×10^4 cells/mL) were pretreated for 3 h with DMSO or compounds 4 and 5, and then left untreated (control) or treated for 48 h with 50 U/mL IFNγ. The expression level of MHC-II and CD40 was evaluated by flow cytometry as described.^21-23

Another assay concerns STAT3. Description: Western blot of phosphorylated STAT3 in IL6-activated human macrophages. It counts as cell-based. Particulars: human macrophages pretreated 30 min at 10 and 50 μM; 30 min activation with 25 ng/mL IL6. The procedure:
as §1

In the next assay the test system is CD40. Description: Flow cytometry of CD40 surface antigen in IFNγ-activated human macrophages. The class given is cell-based. Particulars: compound 4 at 10 μM, compound 5 at 25 μM. The procedure: as §2

For the molecule `CC(C)(C)OC(=O)NNC(=O)c1ccc(N2C(=O)C=CC2=O)cc1` [Compound 4, N′-[4-(2,5-dioxo-2,5-dihydro-pyrrol-1-yl)-benzoyl]-hydrazine carboxylic acid tert-butyl ester], the “invasiveness activity in 3D spheroid-based tumor invasion assay” value with MDA-MB-241 cells is reported as “anti-invasion properties; also recorded: efficiently inhibited”. In addition, the “IFNγ-induced STAT1 activation (ratio of phosphorylated/no phosphorylated proteins)” value with STAT1 was “decreased; also recorded: efficiently inhibited”. The “M1-induced human UBC T24 cell invasion” value in the assay on human UBC T24 cells was “efficiently inhibited”. Also, the “IL6/STAT3 signaling pathway (Western blot)” value in assay [1] was “inhibit; also recorded: efficiently inhibited”. Also, in the assay on peritoneal macrophages, the “NO production in peritoneal macrophages” value is “significant decrease; also recorded: significantly decrease”; the “urea synthesis and release in peritoneal macrophages” value is “significant decrease; also recorded: significantly decrease”. In addition, the “IFNγ-induced MHC-II expression” value in the assay on MHC-II is on record as “effective in reducing; also recorded: efficiently inhibited”. The “IL6-induced STAT3 activation (ratio of phosphorylated/no phosphorylated proteins)” value with STAT3 is “decreased; also recorded: efficiently inhibited”. Besides, the “IFNγ-induced CD40 expression” value in the assay with CD40 is given as “effective in reducing; also recorded: efficiently inhibited”.
